ChEMBL document CHEMBL1649359, “Izumiphenazines A-C: isolation and structure elucidation of phenazine derivatives from Streptomyces sp. IFM 11204” (2010)

Key:
Assay type in all cases: functional
[1] = tested on: AGS; experiment: Induction of apoptosis in TRAIL-resistant human AGS cells assessed as decrease in cell viability at 40 uM after 24 hrs by fluorometric microculture cytotoxic assay in presence of TRAIL relative to in absence of TRAIL
[2] = tested on: AGS; experiment: Induction of apoptosis in TRAIL-resistant human AGS cells assessed as decrease in cell viability at 30 uM after 24 hrs by fluorometric microculture cytotoxic assay in presence of TRAIL relative to in absence of TRAIL
[3] = tested on: AGS; experiment: Induction of apoptosis in TRAIL-resistant human AGS cells assessed as decrease in cell viability at 20 uM after 24 hrs by fluorometric microculture cytotoxic assay in presence of TRAIL relative to in absence of TRAIL

SMILES: O=C(O)c1cc2c(c3nc4c(O)cccc4nc13)[C@@H]1Cc3nc4cccc(O)c4nc3[C@@H](O)[C@@H]1O2 [IZUMIPHENAZINE A]
- Activity [1]: 78%

SMILES: O=C1C[C@H](c2c(O)cc(C(=O)O)c3nc4cccc(O)c4nc23)Cc2nc3cccc(O)c3nc21 [IZUMIPHENAZINE B]
- Activity [2]: 30%

SMILES: CN(c1ccc(C(=O)O)cc1)c1cccc2nc3c(O)cccc3nc12 [IZUMIPHENAZINE C]
- Activity [3]: 26%
